Measurements published in PubChem BioAssay AID1963428 (Molecular Pharmacology Branch, DTP, NCI, 2024).
Values joined by “and” are separate entries in the source; they are usually repeats but may differ in a detail not shown here. Equal values may be shown once.

System: 171881-019-R-J1-PDC complex spheroid growth, % test/control
Assay: Anticancer human tumor 171881-019-R-J1-PDC patient-derived invasive breast carcinoma cell line growth inhibition [Asc]
Conditions: for viability, T/C: stronger effect = lower value
Protocol: Multicellular complex tumor spheroid response to apoptosis pathway targeting inhibitors Alrizomadlin, Pelcitoclax, and Dasminapant in combination with a variety of drugs and investigational agents in selected tumor cell lines
The MDM2 inhibitor alrizomadlin, the Bcl-2/Bcl-xL inhibitor pelcitoclax, and the IAPs inhibitor dasminapant were evaluated both individually and in combination with standard of care and investigational anticancer small molecules within a complex spheroid model of solid tumors. . Complex spheroids include a stromal component modeled by human endothelial cells (HUVEC) and fibroblasts modeled by human mesenchymal stem cells (MSCs). The concentration ranges selected for each drug and investigational agent were based upon clinically achievable concentrations if the clinical Cmax of the agent was known.
Compounds. The drugs and investigational agents: alrizomadlin (APG-115; NSC831270), pelcitoclax (APG-1252; NSC835773), dasminapant (APG-1387;NSC834197), TAK-243 (NSC785004), copanlisib (NSC809693), olaparib (NSC753686), talazoparib (NSC767125), cobimetinib (NSC 768068), eltanexor (KPT-8602, NSC 794443), abemaciclib (NSC 768073), sotorasib (NSC818433), adagrasib (NSC 831453), MRTX-1133 (NSC 836407), Iadademestat (ORY1001, NSC 806812), and RMC-4630 (NSC839698), were obtained from the NCI Developmental Therapeutics Program Chemical Repository. The FDA-approved anticancer drug set is available from the Developmental Therapeutics Program at https://dtp.cancer.gov/organization/dscb/obtaining/available plates.htm. […] The stock solutions were prepared in dimethyl sulfoxide (DMSO, Sigma-Aldrich, St. Louis, MO, cat. D2650) at 800-fold the tested concentration and stored at -70 degrees C prior to their use. All drugs and investigational agents were tested over a range starting from a high concentration at or near the clinical Cmax and decreasing in half-log increments. If the clinical Cmax for an agent had not been determined, the highest concentration tested was 10 microM.
The patient-derived cancer (PDC) cell lines include five colon adenocarcinomas: 186277-243-T-J2-PDC, 616215-338-R-J1-PDC, 439559-082-T-J2-PDC, 463943-066-T-J2-PDC, and 519858-162-T-J1-PDC; three pancreatic carcinomas: 323965-272-R-J2-PDC, 521955-158-R6-J3-PDC, and 521955-158-R2-J5-PDC; two uterine sarcomas: 327498-152-R-J2-PDC and 993429-296-R-J1-PDC; two rhabdomyosarcomas: 755483-174-R-J1-PDC and 772245-204-R-J1-PDC; two soft tissue sarcomas: 126254-015-R-J1-PDC and 494315-158-R-J1-PDC; two malignant fibrous histiocytomas: 317291-083-R-J1-PDC and 596521-263-R-J1-PDC; two breast carcinomas: 171881-019-R-J1-PDC and 885512-296-R-J2-PDC; and one ovarian carcinoma: 6556581-035-R-J-PDC were obtained from the NCI PDMR, (https://pdmr.cancer.gov). The established cell lines HSSY-2 synovial sarcoma (RRID:CVCL 8719), SYO-1 synovial sarcoma (RRID:CVCL_7146), MPNST malignant peripheral neural sheath tumor were obtained from the Sloan Kettering Institute. The following established cell lines were purchased from the American Type Culture Collection (ATCC, Manassas, VA), Sor the received from the NCI repository:, PANC-1 pancreatic carcinoma (CRL-1469, RRID:CVCL_0480), OVCAR-5 ovarian carcinoma (RRID:CVCL_1628), OVCAR-8 ovarian carcinoma (RRID:CVCL_1629), , MCF-7 breast carcinoma (CRL-12584, RRID:CVCL_0031), MDA-MB-231 breast carcinoma (CRL-12532, RRID:CVCL_0062), NCI-H1876 small cell lung carcinoma (CRL-5902, RRID:CVCL_1503), NCI-H510A small cell lung carcinoma (HTB-184, RRID:CVCL_1565), NCI-H1417 (CRL-5869, RRID:CVCL_1469), and NCI-H196 small cell lung carcinoma (CRL-5823, RRID:CVCL_1509). Dr. Peter Houghton (Greehey Children's Cancer Research Institute, University of Texas Health Science Center, San Antonio, TX) provided Rh-18 rhabdomyosarcoma (RRID:CVCL_1659). Pooled donor human umbilical vein endothelial cells (HUVEC, Lonza, cat. CC-2519) and human mesenchymal stem cells (hMSC, Lonza, cat. PT-2501) were purchased from Lonza (Walkersville, MD).
Cell Culture. […]

[1] = compound alone, run of 09/27/2022
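Wherever viability, T/C is given: spheroids exposed to compounds for 7 days.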

Compound	viability, T/C (compound 0.0316 µM)	viability, T/C (compound 0.1 µM)	viability, T/C (compound 0.316 µM)	viability, T/C (compound 1 µM)	viability, T/C (compound 10 µM)	IC50 (curve of compound)	viability, T/C (compound 0.00316 µM)	viability, T/C (compound 0.01 µM)	other results
C#Cc1c(F)ccc2cc(O)cc(-c3ncc4c(N5CC6CCC(C5)N6)nc(OCC56CCCN5CC(F)C6)nc4c3F)c12 (configuration not stated)	105% and 82.7% and 103%	107% and 98% and 102%	129% and 115% and 117%	229% and 139% and 208%	281% and 162% and 190%	> 10000 nM			viability, T/C (compound 3.16 µM): 271% and 153% and 240%
C=C(F)C(=O)N1CCN(c2nc(OCC3CCCN3C)nc3c2CCN(c2cccc4cccc(Cl)c24)C3)CC1CC#N (configuration not stated)	85.9% and 113% and 104%	86% and 98.9% and 99.5%	116% and 99.8% and 93.9%	82.4% and 111% and 84.5%	0.42% and 0.28% and 0.66%	5430 nM and 5720 nM and 5490 nM			viability, T/C (compound 3.16 µM): 98.7% and 103% and 95.5%
C=CC(=O)N1CCN(c2nc(=O)n(-c3c(C)ccnc3C(C)C)c3nc(-c4c(O)cccc4F)c(F)cc23)C(C)C1 (configuration not stated)	94.2% and 93.7% and 99.4%	95.4% and 109% and 106%	90.9% and 107% and 99.9%	89.2% and 92.1% and 88.4%	71.1% and 78.1% and 83.2%	> 10000 nM			viability, T/C (compound 3.16 µM): 80.5% and 93.2% and 83.7%
CCN1C(C(=O)NC23CCC(C(=O)O)(CC2)CC3)C(c2cccc(Cl)c2F)C2(C(=O)Nc3cc(Cl)ccc32)C12CCCCC2 (configuration not stated)						> 3000 nM			viability, T/C (compound 0.00949 µM): 76.5% and 112%; IC50 [1]: > 3000 nM
CCN1CCN(Cc2ccc(Nc3ncc(F)c(-c4cc(F)c5nc(C)n(C(C)C)c5c4)n3)nc2)CC1	97.8% and 111% and 105%	109% and 104% and 128%	110% and 120% and 131%	130% and 141% and 128%		> 1000 nM	97.1% and 108% and 114%	79.1% and 101% (2×)	
CNC(C)C(=O)NC1CN(S(=O)(=O)c2cccc(S(=O)(=O)N3CCC4CCC(C(=O)NC(c5ccccc5)c5ccccc5)N4C(=O)C(NC(=O)C(C)NC)C3)c2)CCC2CCC(C(=O)NC(c3ccccc3)c3ccccc3)N2C1=O (configuration not stated)		95.1% [middle of 15 runs]				> 1000 nM	102% and 97.8%		IC50 (compound alone, run of 10/03/2022): > 1000 nM
COc1c(OCCCN2CCOCC2)ccc2c3n(c(=NC(=O)c4cnc(N)nc4)nc12)CCN3	50.5% and 46.9% and 61.2%	17.4% and 14.1% and 19.9%	3.09% and 3.26% and 4.21%	1.31% and 1.02% and 4.37%		33.9 nM and 30.9 nM and 24.8 nM	148% and 152% and 226%	115% and 134% and 153%	
Cc1c(S(C)(=O)=O)c(-c2cc(F)cc(N3CCN(c4ccc(NS(=O)(=O)c5ccc(NC(CCN6CCC(C(=O)OCCCP(=O)(O)O)CC6)CSc6ccccc6)c(S(=O)(=O)C(F)(F)F)c5)cc4)CC3)c2)c(-c2ccc(Cl)cc2)n1C(C)C (configuration not stated)		98.9% [middle of 14 runs]			175% [middle of 14 runs]				IC50 [1]: > 10000 nM
Cc1nc(N2CCC3(CC2)COC(C)C3N)c(CO)nc1Sc1ccnc(N)c1Cl (configuration not stated)						> 3000 nM			viability, T/C (compound 0.00949 µM): 123% and 94.5% and 97.3%; viability, T/C (compound 0.03 µM): 137% and 100% and 92%; viability, T/C (compound 0.0949 µM): 214% and 125% and 157%; viability, T/C (compound 0.3 µM): 268% and 160% and 188%; viability, T/C (compound 0.949 µM): 225% and 150% and 152%; viability, T/C (compound 3 µM): 168% and 117% (2×)
Cn1ncnc1[C@H]1c2n[nH]c(=O)c3cc(F)cc(c23)N[C@@H]1c1ccc(F)cc1	86.6% and 86.8% and 99.6%	91.4% and 81% and 106%				> 100 nM	90% and 88.5% and 79.2%	92.8% and 101% and 84.1%	viability, T/C (compound 0.000316 µM): 81.3% and 100% and 94.1%; viability, T/C (compound 0.001 µM): 86.7% and 107% and 93%
NC(=O)C(=Cn1cnc(-c2cc(C(F)(F)F)cc(C(F)(F)F)c2)n1)c1cncnc1						23.4 nM and 35.4 nM and 66.1 nM			viability, T/C (compound 0.000949 µM): 83.2% and 95.6% and 98.7%; viability, T/C (compound 0.003 µM): 90.3% and 107% and 115%; viability, T/C (compound 0.00949 µM): 73.5% and 95.6% and 128%; viability, T/C (compound 0.03 µM): 44.2% and 56.6% and 124%; viability, T/C (compound 0.0949 µM): 7.59% and 10.6% and 19.6%; viability, T/C (compound 0.3 µM): 2.48% and 3.46% and 4.69%
NC1CCC(NC2CC2c2ccccc2)CC1 (configuration not stated)	76.2% and 94.8% and 77.5%	75.7% and 109% and 79.7%				> 100 nM	94.6% and 94.2% and 80.9%	92.8% and 95.6% and 87.6%	viability, T/C (compound 0.000316 µM): 97.1% and 106% and 92%; viability, T/C (compound 0.001 µM): 87.7% and 98.6% and 88.7%
O=C(c1cc(Cc2n[nH]c(=O)c3ccccc23)ccc1F)N1CCN(C(=O)C2CC2)CC1	88.5% and 96.6% and 106%	90.8% and 103% and 111%	93.1% and 101% and 107%	95.5% and 86% and 102%	92.6% and 79.8% and 122%	> 10000 nM			viability, T/C (compound 3.16 µM): 87.9% and 87.8% and 107%
O=C(c1ccc(F)c(F)c1Nc1ccc(I)cc1F)N1CC(O)([C@@H]2CCCCN2)C1	121% and 111% and 153%	150% and 136% and 218%	65.5% and 51.4% and 121%	32.6% and 32.5% and 58.2%		545 nM and 344 nM and > 1000 nM	86.7% and 86.1% and 88.1%	104% and 85.4% and 111%	
